# Where two headings read alike, the source gives them in different places.
# Experiments:
# [1] = Pharmacokinetic properties in SD rats; type: in vivo; conditions: rat; SD rats (male), intravenous, 20 mg/kg; blood, biological assay (agar well method)
# Procedure: The pharmacokinetic properties of the compound of the present invention were determined using SD rats (.male.) weighing 220 to 340 g. Specifically, the test samples were administered in intravenous route in an amount of 20 mg/kg to 2 to 5 test animals. Blood was taken from femoral vein every hours after the administration and then subjected to a biological assay using agar well method to measure the blood concentration. The results of pharmacokinetic properties calculated from the above blood concentration are described in the following Table 3.
# E. coli TEM9 2639E = assay: Minimum inhibitory concentration, agar dilution; type: cell-based; conditions: Escherichia coli, TEM92639E, 20 h, read-out: Minimum Inhibitory Concentration
# Procedure: (§1) The minimum inhibitory concentration was determined by diluting the test compounds according to 2-fold dilution, suspending them in M uller-Hinton agar medium, inoculating the test strains having 10^7 CFU per 1 ml into the medium and then culturing the medium at 37° C. for 20 hours.
# A. calcoaceticus 15473A = assay: Minimum inhibitory concentration, agar dilution; type: cell-based; conditions: Acinetobacter calcoaceticus, Muller-Hinton agar, 10^7 CFU per ml, 37° C., 20 hours
# Procedure: as §1
# P. aeruginosa 1912E = assay: Minimum inhibitory concentration, agar dilution; type: cell-based; conditions: Pseudomonas aeruginosa, 20 h, read-out: Minimum Inhibitory Concentration
# Procedure: as §1
# S. marcescens 1826E = assay: Minimum inhibitory concentration, agar dilution; type: cell-based; conditions: Serratia marcescens, Muller-Hinton agar, 10^7 CFU per ml, 37° C., 20 hours
# Procedure: as §1
# S. faecalis 29212A = assay: Minimum inhibitory concentration, agar dilution; type: cell-based; conditions: Enterococcus faecalis, read-out: Minimum Inhibitory Concentration
# Procedure: as §1
# P. aeruginosa 6065Y = assay: Minimum inhibitory concentration, agar dilution; type: cell-based; conditions: Pseudomonas aeruginosa, 20 h, read-out: Minimum Inhibitory Concentration
# Procedure: as §1
# E. coli 10536 = assay: Minimum inhibitory concentration, agar dilution; type: cell-based; conditions: read-out: Minimum Inhibitory Concentration
# Procedure: as §1
# E. coli TEM5 3739E = assay: Minimum inhibitory concentration, agar dilution; type: cell-based; conditions: Escherichia coli, TEM53739E, 20 h, read-out: Minimum Inhibitory Concentration
# Procedure: as §1
# P. aeruginosa 10145 = assay: Minimum inhibitory concentration, agar dilution; type: cell-based; conditions: Pseudomonas aeruginosa, Muller-Hinton agar, 10^7 CFU per ml, 37° C., 20 hours
# Procedure: as §1
# E. coli TEM1 1193E = assay: Minimum inhibitory concentration, agar dilution; type: cell-based; conditions: Escherichia coli, TEM11193E, 20 h, read-out: Minimum Inhibitory Concentration
# Procedure: as §1
# E. coli 3190Y = assay: Minimum inhibitory concentration, agar dilution; type: cell-based; conditions: Escherichia coli, read-out: Minimum Inhibitory Concentration
# Procedure: as §1
# S. aureus giorigio = assay: Minimum inhibitory concentration, agar dilution; type: cell-based; conditions: Staphylococcus aureus, Muller-Hinton agar, 10^7 CFU per ml, 37° C., 20 hours
# Procedure: as §1
# S. typhimurium 14028A = assay: Minimum inhibitory concentration, agar dilution; type: cell-based; conditions: Salmonella enterica, TYPHIMURIUM, 20 h, read-out: Minimum Inhibitory Concentration
# Procedure: as §1
# K. aerogenes 1976E = assay: Minimum inhibitory concentration, agar dilution; type: cell-based; conditions: Klebsiella aerogenes, Muller-Hinton agar, 10^7 CFU per ml, 37° C., 20 hours
# Procedure: as §1
# S. aureus 6538pA = assay: Minimum inhibitory concentration, agar dilution; type: cell-based; conditions: Staphylococcus aureus, Muller-Hinton agar, 10^7 CFU per ml, 37° C., 20 hours
# Procedure: as §1
# E. cloacae 1194E = assay: Minimum inhibitory concentration, agar dilution; type: cell-based; conditions: Enterobacter cloacae, 1194E, 20 h, read-out: Minimum Inhibitory Concentration
# Procedure: as §1
# [2] = Escherichia coli, E. coli 10536, Muller-Hinton agar, 10^7 CFU per ml, 37° C., 20 hours
# [3] = E. coli 3190Y, Muller-Hinton agar, 10^7 CFU per ml, 37° C., 20 hours
SMILES,AUC [1] [ng·h/mL],half-life [1] [min],MIC (E. coli TEM9 2639E) [µg/mL],MIC (A. calcoaceticus 15473A) [µg/mL],MIC (P. aeruginosa 1912E) [µg/mL],MIC (S. marcescens 1826E) [µg/mL],MIC (P. aeruginosa 6065Y) [µg/mL],MIC (E. coli 10536; [2]) [µg/mL],MIC (E. coli TEM5 3739E) [µg/mL],MIC (P. aeruginosa 10145) [µg/mL],MIC (E. coli TEM1 1193E) [µg/mL],MIC (E. coli 3190Y; [3]) [µg/mL],MIC (S. aureus giorigio) [µg/mL],MIC (S. typhimurium 14028A) [µg/mL],MIC (K. aerogenes 1976E) [µg/mL],MIC (S. aureus 6538pA) [µg/mL],MIC (E. cloacae 1194E) [µg/mL],"MIC (S. faecalis 29212A; 29212A, 20 h) [µg/mL]","MIC (E. coli 3190Y; 3190Y, 20 h) [µg/mL]",further results
"Cn1c(N)n[n+]2c(SCC3=C(C(=O)[O-])N4C(=O)C(NC(=O)C(=NOC(C(=O)O)c5ccc(O)c(O)c5)c5csc(N)n5)[C@H]4SC3)nc(N)cc12 (stereo partly drawn) [I-10(a), 7-[(Z)-2-(2-aminothiazol-4-yl)-2-(α-carboxy-3,4-dihydroxybenzyloxyimino)acetamido]-3-(2,7-diamino-1-methyl[1,2,4]triazolo[1,5-c]pyrimidinium-5-yl)thiomethyl-3-cephem-4-carboxylate]",66000,58,1,0.5,0.5,0.25,0.5,0.016,0.25,0.25,0.063,0.031,0.25,0.063,0.13,0.5,1,–,–,"MIC (S. faecalis 29212A; S. faecalis 29212A, Muller-Hinton agar, 10^7 CFU per ml, 37° C., 20 hours): 8 µg/mL"
"Nc1nc(C(=NOC(C(=O)O)c2ccc(O)c(O)c2)C(=O)NC2C(=O)N3C(C(=O)[O-])=C(CSc4nc(N)c5c([n+]4N)CCC5)CSC23)cs1 (stereo not drawn) [I-8(a), 7-[(Z)-2-(2-aminothiazol-4-yl)-2-(α-carboxy-3,4-dihydroxybenzyloxyimino)acetamido]-3-(1,4-diamino-1,5,6,7-tetrahydrocyclopentapyrimidin-2-yl) thiomethyl-3-cephem-4-carboxylate]",64500,53,1,0.25,0.5,0.5,1,0.031,0.5,0.5,0.063,0.031,0.063,0.063,0.13,0.5,2,16,–,–
"Cc1c(N)nc(SCC2=C(C(=O)[O-])N3C(=O)C(NC(=O)/C(=N\OC(C(=O)O)c4ccc(O)c(O)c4)c4csc(N)n4)[C@H]3SC2)[n+](N)c1N (stereo partly drawn) [I-1(a), 7-[(Z)-2-(2-aminothiazol-4-yl)-2-(α-carboxy-3,4-dihydroxybenzyloxyimino)acetamido]-3-(5-methyl-1,4,6-triaminopyrimidinium-2-yl)thiomethyl-3-cephem-4-carboxylate]",52500,40,1,0.5,0.5,0.25,0.5,0.013,0.25,0.25,0.063,–,0.13,0.063,0.13,0.25,1,16,0.063,–
"CC(C)(O/N=C(\C(=O)N[C@@H]1C(=O)N2C(C(=O)[O-])=C(C[n+]3ccccc3)CS[C@H]12)c1csc(N)n1)C(=O)O [CAZ, Ceftazidime, reference compound]",–,–,> 128,2,1,0.25,32,–,8,2,0.25,–,4,0.25,0.25,16,128,> 128,0.063,"MIC (E. coli 10536; Escherichia coli, 10536, 20 h): 0.13 µg/mL"

# — US5605895A, “Cephalosporin antibiotics and processes for preparation thereof” (Lucky, Ltd., priority 1993, dated 1997)
